These results are taken from patent publication US20210254000A1, “PROCESS FOR PRODUCING A T CELL COMPOSITION” (Juno Therapeutics, Inc., priority 2017, published 2021).

Read-outs that look alike come from different tables or passages of the source.

The subject of one test is Ribo-S6 phosphorylation. Nature of the test: Inhibition of ribosomal protein S6 phosphorylation in stimulated primary human T cells (flow cytometry). It counts as cell-based. The protocol: The dose effect of exemplary mTOR kinase inhibitors in primary human T cells was assessed by monitoring inhibition of ribosomal protein S6.
CD4+ and CD8+ T cells were isolated by immunoaffinity-based enrichment from leukapheresis samples from human donor subjects. Isolated CD4+ and CD8+ T cells were mixed 1:1 and stimulated with anti-CD3/anti-CD28 magnetic beads in the presence of increasing concentrations of an mTOR kinase inhibitor, PI-103, Compound 155, Compound 63, or Compound 246. The T cell cultures were incubated overnight (approximately 16 hr) at 37° C. Following incubation in the presence of PI-103, Compound 155, Compound 63, or Compound 246, T cells were assessed for intracellular S6 phosphorylation and co-stained for surface expression of CD4 or CD8, by flow cytometry.
Background: Flow cytometry measures light scatter and fluorescence of single cells or particles in a stream.

Another test has as its system phospho-S6. Nature of the test: Antigen-dependent CAR signaling (phospho-S6) in expanded CAR-T cells. The note with it: cells expanded with 200 nM PI-103 or 1 μM Compound 63, washed; 20 hours co-culture 1:1. It counts as cell-based, human. How it is done: (§1) Separate compositions of CD4+ and CD8+ cells were isolated from three human donors, activated and transduced with a viral vector encoding an anti-CD19 CAR substantially as described in Example 2. After transduction, the CD4+ and CD8+ T cells derived from each donor were separately incubated for 8 days in the presence of a mTOR kinase inhibitor to expand T cells substantially as described in Example 2, except in the presence of 200 nM PI-103, 1 μM Compound 63, or with DMSO vehicle or media only controls. CD4+ and CD8+ T cells from each donor were then separately harvested, formulated, and cryofrozen. The cryofrozen engineered CD4+ and CD8+ T cells were thawed, washed to remove compound, and cells from the same donor were then combined at a ratio of 1:1 viable CD4+/CAR+ to viable CD8+/CAR+ T cells to produce an expanded anti-CD19 CAR-T cell composition containing CD4+ and CD8+ T cells. Functional activities of the generated anti-CD19 CAR-T cell compositions were assessed.
Antigen-dependent signaling of CAR-T cells among generated anti-CD19 CAR-T cell compositions was assessed by monitoring activation of phospho-S6. […] After 20 hours, cells were assessed, for intracellular S6 phosphorylation and co-stained for surface expression of CD4 or CD8, by flow cytometry.

Test [1] deals with CD8+ and CD4+ T cells of anti-CD19 CAR-T cell compositions. Kind of test: Intracellular polyfunctional cytokine profiles. The format is cell-based, human. To be noted: cells expanded with 200 nM PI-103 or 1 μM Compound 63; PMA/Ionomycin + Golgi Inhibitor or Golgi Inhibitor alone, 5 hours. The protocol: as §1
Intracellular cytokines, CD107a, IFN-gamma ([…]), IL-2, IL-17a, and TNF-alpha (TNFα), were assessed in co-cultured T cells that were split into two groups and further incubated for 5 hours with PMA/Ionomycin and a Golgi Inhibitor or a Golgi Inhibitor alone. The intracellular cytokine accumulation was expressed as a fold change in frequency of cytokine positive cells from media-only controls. […]

The subject of another test is anti-CD19 CAR-T cells. Kind of test: CAR-specific expansion with anti-idiotype antibody conjugated beads. The format is cell-based, human. The note with it: anti-idiotype beads 1:1, 15 days; relative to media only. The protocol:
as §1, with “The cryofrozen engineered CD4+ and CD8+ T cells were thawed, washed to remove compound, and cells from the same donor were then combined at a ratio of 1:1 viable CD4+/CAR+ to viable CD8+/CAR+ T cells to produce an expanded anti-CD19 CAR-T cell composition containing CD4+ and CD8+ T cells.” left out
The ability of the cells to expand following stimulation of the CAR was assessed by incubating cells of the generated anti-CD19 CAR-T cell compositions with beads surface conjugated with an anti-idiotype antibody specific to the anti-CD19 CAR. […] The total live T cells per well was determined by counting cells in the cultures every 5 days (FIG. 8A). The mean area under the curve (AUC) as a function of T cell number over time was calculated relative to the AUC of cells expanded with media only (FIG. 8B).

Test [2] concerns anti-CD19 CAR-T cells stimulated with irradiated K562-CD19 target cells. Kind of test: Secondary cytokine response after anti-idiotype bead expansion. To be noted: for secondary cytokine production following subsequent stimulation with antigen: cells harvested at day 11 after anti-idiotype bead expansion, K562-CD19 1:1, approximately 16 hours. It counts as cell-based, human.
Another test concerns CD4+ and/or CD8+ T cells. Nature of the test: RNA-Seq gene expression of CAR-T cells expanded with inhibitor. The note with it: FDR≤10%. The format is cell-based, human. The protocol: Gene expression among cells of the generated anti-CD19 CAR-T cell compositions described in Example 2, generated by expanding the cells in the presence of PI-103, Compound 63, DMSO vehicle, or media only, was assessed by RNA sequencing (RNA-Seq). RNA was extracted from compositions generated from three donors under each expansion condition and an assessment of the whole-transcriptome was performed by RNA-Seq. FPKM and FPKQ values were determined; FPKQ values were log-transformed (log 2). Gene expression was determined by comparing expression profiles of CD4+, CD8+ or combined CD4+/CD8+ cells among cells of the generated anti-CD19 CAR-T cell compositions that were expanded in the presence of media only, PI-103, or Compound 63, as compared to cells expanded with DMSO vehicle. Gene products were identified that were different among each groups based on analysis of a volcano plot by imposing cutoff of FDR≤10% between the two conditions.

[3] abbreviates: Homo sapiens, T-cell, CD8+ T cells, read-out: IC50 for inhibition of Ribo-S6 phosphorylation, CD8.
[4] abbreviates: Homo sapiens, CD4+ T cells, read-out: IC50 for inhibition of Ribo-S6 phosphorylation, CD4.
[5] abbreviates: T-cell, primary human CD4+/CD8+ T cells mixed 1:1, anti-CD3/anti-CD28 beads, approximately 16 hr, read-out: IC50 for the inhibition of S6 phosphorylation in the T cells.

Turning to `CC(C)c1ccccc1-n1c(=O)[nH]c2c(C(N)=O)nc(-c3cccc(O)c3)nc21` [Compound 63, 2-(3-Hydroxyphenyl)-9-(2-isopropylphenyl)-8-oxo-8,9-dihydro-7H-purine-6-carboxamide], the half-maximal inhibitory concentration (IC50) is 503 nM in the test with Ribo-S6 phosphorylation (setting [3]), 468 nM in the test with Ribo-S6 phosphorylation (setting [4]) and around 500 nM in the test on Ribo-S6 phosphorylation (setting [5]). Further, the “phospho-S6 staining after antigen stimulation vs DMSO vehicle or media only” value in the test with phospho-S6 was “similar”. Besides, the “frequency of polyfunctional cytokine profiles in CD8+ and CD4+ T cells vs control cells” value in test [1] is “increased frequency of certain polyfunctional cytokine profiles”. Further, the “mean AUC of live T cell number over time compared to DMSO vehicle” value in the test with anti-CD19 CAR-T cells is “larger mean AUC”. The “secondary cytokine production following subsequent stimulation with antigen” value in test [2] is “improved secondary cytokine production”. The “frequency of CD8+ T cells that were CD107a+IFNγ+” value in test [2] (some donor-derived cells, day 11, Golgi Inhibitor 4 hours) was “increased frequency of CD8+ T cells that were CD107a+IFNγ+ cells”. The “gene expression (RNA-Seq) compared to cells expanded with DMSO vehicle” value with CD4+ and/or CD8+ T cells is given as “significantly changed gene expression”.

For `Oc1cccc(-c2nc(N3CCOCC3)c3oc4ncccc4c3n2)c1` [PI-103, reference compound], the 50% inhibitory concentration (IC50) with Ribo-S6 phosphorylation (setting [3]) is 88.4 nM; in the test with Ribo-S6 phosphorylation (setting [4]), 121 nM; in the test with Ribo-S6 phosphorylation (setting [5]) it was around 100 nM. Also, in the test on phospho-S6, the “phospho-S6 staining after antigen stimulation vs DMSO vehicle or media only” value is on record as “similar”. Besides, in test [1], the “frequency of polyfunctional cytokine profiles in CD8+ and CD4+ T cells vs control cells” value is given as “increased frequency of certain polyfunctional cytokine profiles”. In the test on anti-CD19 CAR-T cells, the “mean AUC of live T cell number over time compared to DMSO vehicle” value is recorded as “larger mean AUC”. Besides, the “secondary cytokine production following subsequent stimulation with antigen” value in test [2] is reported as “improved secondary cytokine production”. In the test on CD4+ and/or CD8+ T cells, the “gene expression (RNA-Seq) compared to cells expanded with DMSO vehicle” value is “significantly changed gene expression”.

One may read the IC50 as the point on the concentration scale where inhibition reaches its midpoint.
